{
  "source": "patent US20080280890A1",
  "about": "“HYDROXYLAMINE COMPOUNDS AND METHODS OF THEIR USE” (priority 2007, published 2008)",
  "key": {"[1]": {"test_system": "Angiogenesis in CAM model", "experiment": "Neovascularization on the CAM (chick chorioallantoic membrane model of angiogenesis)", "assay_type": "in vivo, chicken", "settings": "for Percent inhibition of angiogenesis in CAM model at 30 ug: unit assumed", "method": "In vivo neovascularization was examined by the method previously described by Auerbach et al. (J. Dev. Biol. 41:391-394 (1974)). Ten-day old chicken embryos were purchased from Spafas, Inc. (Preston, Conn.) and were incubated at 37° C. with 55% relative humidity. In the dark, with the aid of a candling lamp, a small hole was punctured in the shell concealing the air sac with a hypodermic needle. A second hole was punctured in the shell on the broadside of the egg directly over an […] portion of the embryonic membrane, as observed during candling. An artificial air sac was created beneath the second hole by applying gentle vacuum to the first hole using a small rubber squeeze bulb. The vacuum caused the chorioallantoic membrane (CAM) to separate from the shell.\nA window, approximately 1.0 cm^2, was cut in the shell over the dropped CAM with the use of a small crafts grinding wheel (Dremel, Division of Emerson Electric Company Racine, Wis.). The window allowed direct access to the underlying CAM.\nA pro-angiogenic agent was added to induce new blood vessel branches on the CAM of 10-day old embryos. Filter disks of #1 filter paper (Whatman International, United Kingdom) were punched using a small puncher and were soaked in 3 mg/mL cortisone acetate (Sigma, St. Louis, Mo.) in a solution (95% ethanol and water). The disks were subsequently air dried under sterile conditions. The disks were then suspended in PBS (Phosphate Buffered Saline) and placed on growing CAMs. Filters treated with TP-H (TEMPOL-H) or TEMPOL and/or H2O2 or TP-H and/or bFGF or VEGF were placed on the first day of the 3-day incubation.\nFor inducing angiogenesis, sterile filter disks were saturated with bFGF (1 μg/ml) (Life Technologies, Gaithersburg, Md.) or other pro-angiogenesis factors and control disks were saturated with PBS without Calcium and Magnesium. […]\nUsing sterile forceps one filter/CAM was placed from the window. The window was sealed with Highland brand transparent tape.\nAfter 24-48 hr, 10-25 ul of test agent was injected intravenously or added topically into the CAM membrane. Eight-Ten eggs/treatment group were used.\nCAM tissue directly beneath filter disk was harvested from embryos treated 48 hours prior with compound or control. Tissues were washed three times with PBS. Sections were placed in a 35-mm petri dish (Nalge Nunc, Rochester, N.Y.) and examined under a SV6 stereomicroscope (Karl Zeiss, Thornwood, N.Y.) at 50× magnification.\nCAM sections from Petri dish were examined using SV6 stereomicroscope (Karl Zeiss) at 50× magnification. Digital images of CAM sections from Petri dish were collected using a 3-CCD color video camera system (Toshiba America, New York, N.Y.). These images were analyzed using Image-Pro Plus software (Media Cybernetics, Silver Spring, Md.).\nThe number of branch points in blood vessels within the circular region superimposed to the area of a filter disk was counted for each section. After incubation at 37° C. with 55% relative humidity for 3 days, the CAM tissue directly beneath each filter disk was resected from control and treated CAM samples. Tissues were washed three times with PBS. Sections were placed in a 35-mm Petri dish (Nalge Nunc; Rochester, N.Y.) and were examined under a SV6 stereomicroscope (Karl Zeiss; Thornwood, N.Y.) at 50× magnification. Digital images of CAM sections adjacent to filters were collected using a 3-CCD color video camera system (Toshiba America; New York, N.Y.) and analyzed with the Image-Pro Plus software (Media Cybernetics; Silver Spring, Md.).\nThe number of vessel branch points contained in a circular region equal to the area of a filter disk was counted for each section. Percent inhibition data are expressed as the quotient of the experimental value minus the negative control value divided by the difference between the positive control value and the negative control value. […]"}, "[2]": {"test_system": "Human neuroblastoma SKN-SH cells, resistant to doxorubicin", "experiment": "Chemoresistance: cancer cell viability (MTT) in presence or absence of doxorubicin", "assay_type": "cell-based", "settings": "compound 50 ug/mL, MTT", "from_the_text": "A method for evaluating a compound's propensity to overcome cancer cell chemoresistance is described in “Caspase Inhibition Switches Doxorubicin-Induced Apoptosis To Senescence”, Abdelhadi Rebbaa, Xin Zheng, Pauline M Chou and Bernard L Mirkin, Oncogene (2003) 22, 2805-2811. Resistant human cancer cells to doxorubicin were selected by stepwise exposure to drug concentrations ranging from 10^−9 M-10^−6 M over 3 months. They were then subjected to treatment with the doxorubicin alone or in combination with hydroxylamine compounds 1-12, 16, 20, and 21 (Table 4). The cells were incubated with the drugs for 72 hours, and cell viability was measured by the MTT assay. Additionally, molecular pathways that might be associated with increased chemo-responsiveness with these compounds were investigated. p Cancer Cell Viability Data for certain hydroxylamines in the presence or absence of Doxorubicin is listed in Table 4.\nA method for evaluating a compound's propensity to overcome cancer cell chemoresistance is described in “Caspase Inhibition Switches Doxorubicin-Induced Apoptosis To Senescence”, Abdelhadi Rebbaa, Xin Zheng, Pauline M Chou and Bernard L Mirkin, Oncogene (2003) 22, 2805-2811. Human neuroblastoma SKN-SH cells (ATCC Cat. No. HTB-11) were cultured in Dulbecco's Modified Eagles Medium (DMEM; Gibco, Grand Island, N.Y.) supplemented with 10% fetal bovine serum (FBS; Sigma-Aldrich, St. Louis, Mo.) at 37° C. in a 95% Air/5% CO2 atmosphere. Resistant human cancer cells to doxorubicin were selected by stepwise exposure to drug concentrations ranging from 10^−9M-10^−6M over 3 months. They were then subjected to treatment with the doxorubicin alone or in combination with hydroxylamine compounds. The cells were incubated with the drugs for 72 hours, and cell viability was measured by the MTT assay. This consists of adding 10 μl/well of MTT (5 mg/ml solution) and incubation for 4 h at 37° C. The precipitate formed is then solubilized by addition of 100 μl of HCL 0.5 N/Isopropanol and incubation for 15 hours at 37° C. The optical density is measured at 570 nm and cell survival is estimated by comparison to untreated cells. Each point represents 4 wells data represent average ± SE. Additionally, molecular pathways that might be associated with increased chemo-responsiveness with these compounds were investigated.\nCytotoxic activity of doxorubicin and hydroxylamine analogs were quantitatively determined by a colorimetric assay utilizing 3-(4,5-dimethyl-2-thiazolyl) 2,5-diphenyl tetrazolium bromide (MTT; Sigma-Aldrich, St. Louis, Mo.). Briefly, cells were seeded at 10^4 cells/well in 96-well plates and maintained in culture for 24 hours at 37° C. in DMEM supplemented with 10% FBS. Drugs were added to designated wells and cells were incubated for […], following which MTT (10 μL of 5 mg/ml solution) was added to each 100 μl well and incubated for 4 hours at 37° C. The cells were solubilized by incubation with 100 μl of HCl 0.5N in isopropanol for 15 hours at 37° C. The optical density of this solution was measured at 570 nm and the percentage of viable cells estimated by comparison with untreated control cells."}},
  "data": [
    {"compound": "CC1(C)CC(c2nn[nH]n2)CC(C)(C)N1O.Cl", "note": "[Compound 30, 1-hydroxy-2,2,6,6-tetramethyl-4-(2H-tetrazol-5-yl)piperidine]", "values": [
      {"measurement": "Percent inhibition of angiogenesis in CAM model at 30 ug", "setting": "[1]", "value": 90.4, "unit": "%"},
      {"measurement": "Mean OD (×10^−3), cancer cell viability", "setting": "[2]; Dox. 10^−6 M present (+)", "value": "310.00 ×10^−3"},
      {"measurement": "Mean OD (×10^−3), cancer cell viability", "setting": "[2]; Dox. absent (−)", "value": "1301.25 ×10^−3"}
    ]},
    {"compound": "COc1cc(C2=CC(C)(C)N(O)C(C)(C)C2)cc(OC)c1OC.Cl", "note": "[Compound 50, 1-Hydroxy-2,3,6-trihydro-4-(3,4,5-trimethoxyphenyl)-2,2,6,6-tetramethylpiperidine]", "values": [
      {"measurement": "Percent inhibition of angiogenesis in CAM model at 30 ug", "setting": "[1]", "value": 92.3, "unit": "%"},
      {"measurement": "Mean OD (×10^−3), cancer cell viability", "setting": "[2]; Dox. 10^−6 M present (+)", "value": "54.50 ×10^−3"},
      {"measurement": "Mean OD (×10^−3), cancer cell viability", "setting": "[2]; Dox. absent (−)", "value": "1226.33 ×10^−3"}
    ]},
    {"compound": "CC(C)c1nsnc1OCC1=CC(C)(C)N(O)C1(C)C", "note": "[Compound 51]", "values": [
      {"measurement": "Percent inhibition of angiogenesis in CAM model at 30 ug", "setting": "[1]", "value": 43, "unit": "%"},
      {"measurement": "Mean OD (×10^−3), cancer cell viability", "setting": "[2]; Dox. 10^−6 M present (+)", "value": "71.00 ×10^−3"},
      {"measurement": "Mean OD (×10^−3), cancer cell viability", "setting": "[2]; Dox. absent (−)", "value": "1208.25 ×10^−3"}
    ]},
    {"compound": "Vitamin E [reference compound]", "values": [
      {"measurement": "CAM data % Inhibition", "setting": "[1]; 300 ug", "value": "22 ± 6", "unit": "%"}
    ]},
    {"compound": "CC1(C)CC(NC(=O)CCN2CCOCC2)CC(C)(C)N1O.Cl", "note": "[Compound 26, N-(1-hydroxy-2,2,6,6-tetramethylpiperidin-4-yl)-3-morpholinopropanamide]", "values": [
      {"measurement": "Percent inhibition of angiogenesis in CAM model at 30 ug", "setting": "[1]", "value": 72, "unit": "%"},
      {"measurement": "Mean OD (×10^−3), cancer cell viability", "setting": "[2]; Dox. 10^−6 M present (+)", "value": "261.50 ×10^−3"},
      {"measurement": "Mean OD (×10^−3), cancer cell viability", "setting": "[2]; Dox. absent (−)", "value": "1056.33 ×10^−3"}
    ]},
    {"compound": "CC1(C)CC(=O)C(C)(C)N1O.Cl", "note": "[Compound 37, 1-hydroxy-2,2,5,5-tetramethylpyrrolidin-3-one]", "values": [
      {"measurement": "Mean OD (×10^−3), cancer cell viability", "setting": "[2]; Dox. 10^−6 M present (+)", "value": "366.25 ×10^−3"},
      {"measurement": "Mean OD (×10^−3), cancer cell viability", "setting": "[2]; Dox. absent (−)", "value": "1329.75 ×10^−3"}
    ]},
    {"compound": "1-Hydroxy-4-(4-Flurophenyl)-2,2,6,6-tetramethylpiperidine [Compound 62]", "values": [
      {"measurement": "Percent inhibition of angiogenesis in CAM model at 30 ug", "setting": "[1]", "value": 43.8, "unit": "%"},
      {"measurement": "Mean OD (×10^−3), cancer cell viability", "setting": "[2]; Dox. 10^−6 M present (+)", "value": "40.25 ×10^−3"},
      {"measurement": "Mean OD (×10^−3), cancer cell viability", "setting": "[2]; Dox. absent (−)", "value": "184.75 ×10^−3"}
    ]},
    {"compound": "CN1CCN(c2nsnc2OC2CC(C)(C)N(O)C(C)(C)C2)CC1", "note": "[Compound 52]", "values": [
      {"measurement": "Percent inhibition of angiogenesis in CAM model at 30 ug", "setting": "[1]", "value": 68.3, "unit": "%"},
      {"measurement": "Mean OD (×10^−3), cancer cell viability", "setting": "[2]; Dox. 10^−6 M present (+)", "value": "195.00 ×10^−3"},
      {"measurement": "Mean OD (×10^−3), cancer cell viability", "setting": "[2]; Dox. absent (−)", "value": "1186.33 ×10^−3"}
    ]},
    {"compound": "CC1(C)C=C(CO)C(C)(C)N1O", "note": "[Compound 8]", "values": [
      {"measurement": "Percent inhibition of angiogenesis in CAM model at 30 ug", "setting": "[1]", "value": 88, "unit": "%"},
      {"measurement": "Mean OD (×10^−3), cancer cell viability", "setting": "[2]; Dox. 10^−6 M present (+)", "value": "197.25 ×10^−3"},
      {"measurement": "Mean OD (×10^−3), cancer cell viability", "setting": "[2]; Dox. absent (−)", "value": "392.50 ×10^−3"}
    ]},
    {"compound": "CC1(C)CC(Oc2nsnc2Cl)CC(C)(C)N1O.Cl", "note": "[Compound 13, 4-(4-chloro-1,2,5-thiadiazol-3-yloxyl)-1-hydroxyl-2,2,6,6-tetramethylpiperidine]", "values": [
      {"measurement": "Percent inhibition of angiogenesis in CAM model at 30 ug", "setting": "[1]", "value": 51.2, "unit": "%"}
    ]}
  ]
}
